Values quoted from earlier work, collected in patent publication US20070225217A1, “Methods, compositions, and kits for the treatment of medical conditions” (CombinatoRx, Incorporated, priority 2005, published 2007).

## CO[C@H]1C[C@@H]2CC[C@@H](C)[C@@](O)(O2)C(=O)C(=O)N2CCCC[C@H]2C(=O)O[C@H]([C@H](C)C[C@@H]2CC[C@@H](O)[C@H](OC)C2)CC(=O)[C@H](C)/C=C(\C)[C@@H](O)[C@@H](OC)C(=O)[C@H](C)C[C@H](C)/C=C/C=C/C=C/1C [Rapamycin]
  absorption after oral administration: absorbed rapidly and completely
